These results are taken from patent US10787435B2, “ASK1 inhibitor and preparation method and use thereof” (FUJIAN COSUNTER PHARMACEUTICAL CO., LTD., priority 2017, dated 2020).

The target of one series is ASK1/MAP3K5 (Homo sapiens (Human), UniProt Q99683). Put plainly: Evaluation of in vitro enzyme activity (33P-ATP radiometric kinase assay, MBP substrate). It counts as biochemical. The note with it: recombinant human full length GST-tagged ASK1 20 nM, MBP 20 μM. As to the method: Example 1: Evaluation of In Vitro Enzyme Activity
Chain of ASK1/MAP3K5 (Q99683 whole entry): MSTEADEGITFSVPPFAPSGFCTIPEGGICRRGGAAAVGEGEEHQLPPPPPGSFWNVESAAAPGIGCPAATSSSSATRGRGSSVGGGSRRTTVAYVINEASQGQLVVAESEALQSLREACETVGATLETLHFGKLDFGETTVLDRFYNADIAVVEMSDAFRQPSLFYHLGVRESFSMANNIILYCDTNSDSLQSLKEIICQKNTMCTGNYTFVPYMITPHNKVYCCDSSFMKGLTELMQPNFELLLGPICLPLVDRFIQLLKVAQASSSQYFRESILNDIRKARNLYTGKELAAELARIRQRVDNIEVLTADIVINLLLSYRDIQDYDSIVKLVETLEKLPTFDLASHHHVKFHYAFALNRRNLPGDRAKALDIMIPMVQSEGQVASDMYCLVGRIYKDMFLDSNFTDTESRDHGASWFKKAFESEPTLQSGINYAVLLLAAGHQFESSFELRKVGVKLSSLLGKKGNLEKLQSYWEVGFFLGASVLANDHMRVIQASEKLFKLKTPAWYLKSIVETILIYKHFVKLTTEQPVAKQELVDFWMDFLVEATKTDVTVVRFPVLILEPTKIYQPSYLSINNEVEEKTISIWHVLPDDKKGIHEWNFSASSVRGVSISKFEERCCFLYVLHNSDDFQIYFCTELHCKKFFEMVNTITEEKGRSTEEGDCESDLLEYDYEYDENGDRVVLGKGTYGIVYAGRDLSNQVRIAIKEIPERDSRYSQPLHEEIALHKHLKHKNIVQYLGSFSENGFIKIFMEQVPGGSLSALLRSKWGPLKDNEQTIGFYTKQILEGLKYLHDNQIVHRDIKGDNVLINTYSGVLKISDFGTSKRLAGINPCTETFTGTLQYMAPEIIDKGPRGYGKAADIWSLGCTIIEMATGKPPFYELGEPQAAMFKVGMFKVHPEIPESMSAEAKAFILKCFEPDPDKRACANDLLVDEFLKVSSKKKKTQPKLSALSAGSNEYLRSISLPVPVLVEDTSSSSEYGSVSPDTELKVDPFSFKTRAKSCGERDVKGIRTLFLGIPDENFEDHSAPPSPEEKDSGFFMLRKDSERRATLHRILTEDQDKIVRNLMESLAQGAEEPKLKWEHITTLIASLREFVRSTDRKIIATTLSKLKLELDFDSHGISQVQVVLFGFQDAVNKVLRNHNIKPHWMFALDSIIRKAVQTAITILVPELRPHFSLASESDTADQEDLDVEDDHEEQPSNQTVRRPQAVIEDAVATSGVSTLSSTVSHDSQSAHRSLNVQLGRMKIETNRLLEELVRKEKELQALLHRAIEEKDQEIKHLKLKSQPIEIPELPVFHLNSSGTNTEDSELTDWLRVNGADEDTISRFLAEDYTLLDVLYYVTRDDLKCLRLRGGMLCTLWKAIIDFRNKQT
Base Reaction Buffer: 20 mM Hepes (pH 7.5), 10 mM MgCl2, 1 mM EGTA, 0.02% Brij35, 0.02 mg/ml BSA, 0.1 mM Na3VO4, 2 mM DTT, 1% DMSO
The test compound was formulated into a 10 mM stock solution in DMSO, which was diluted into 10 concentrations in 3-fold degression, and placed in a 384-well plate (Cyclic Olefin Copolymer LDV Echo®).
Kinase Name: ASK1/MAP3K5 (Invitrogen, Carlsbad, Calif.)
Type: Recombinant Human Full Length Protein, GST-tagged
Final concentration of the enzyme: 20 nM
Substrate: Myelin basic protein, MBP (Active Motif, Carlsbad, Calif.)
Final concentration of the substrate: 20 μM
1. The substrate was dissolved in a freshly prepared base reaction buffer.
2. A desired coenzyme was added to the above substrate solution.
3. The kinase was added to the substrate solution and mixed slowly.
4. The solution of the test compound in DMSO was added to the kinase reaction solution and incubated at room temperature for 20 minutes.
5. ^33P-ATP (specific activity of 10 μCi/μl) was added to the reaction solution to initiate the reaction.
6. Incubated at room temperature for 2 hours.
7. A small portion of the reactants was placed onto a P-81 ion exchange filter paper.
8. The filter paper was washed three times with 0.75% […] to wash off the unbound phosphate, and then the filter paper was dried.
9. The radioactivity remaining on the filter paper was determined.
10. Kinase activity data was expressed as the ratio of the kinase activity remaining in the test sample to the kinase activity in the vehicle (DMSO).
11. IC50 values and curve fits was obtained with Prism (GraphPad software).

Series [1] in a line: Studies on pharmacokinetic properties in mice (plasma concentration by LC-MS/MS). Format: in vivo. The note with it: C57BL/6 male mice, dose not stated; for Exposure: intravenous or oral administration; for bioavailability: mouse, po, intragastric vs tail vein. As to the method:
Example 2: Studies on Pharmacokinetic Properties
C57BL/6 male mice were used as subject animals in the study. The concentration of the drug in the plasma of mice injected intravenously or administrated orally with the test compound was quantified at different time points by using a LC/MS/MS method to evaluate the pharmacokinetic characteristics of the test drug in mice.
A clear solution of the test compound was injected into C57BL/6 mice (overnight-fasted, 7-10 weeks old) via the tail vein, and the test compound was intragastrically administered to C57BL/6 mice (overnight-fasted, 7-10 weeks old). Approximately 30 μL of blood was collected from each animal via the jugular vein or tail vein at 0.0833, 0.25, 0.5, 1, 2, 4, 6, 8 and 24 hours after administration, and placed in an anticoagulant tube supplemented with EDTA-K2. Centrifuged at 3000 g at 4° C. for 15 min, and the plasma was collected. The plasma concentration was determined by LC-MS/MS. The pharmacokinetic parameters were calculated by using the non-compartment model and linear logarithmic trapezoidal method using the pharmacokinetic software WinNonlin™ Version 6.3 (Pharsight, Mountain View, Calif.).

For the compound `Cc1ccc(-c2cc3ncn(-c4cccc(-c5nncn5C(C)C)n4)c(=O)c3cc2-n2cnc(C3CC3)c2)cn1` [Example 032], the IC50 at ASK1/MAP3K5 was at most 50 nM.
As to `Cc1cc2ncn(-c3cccc(-c4nncn4C4CCC(F)(F)CC4)n3)c(=O)c2cc1-n1cnc(C2CC2)c1` [Example 049], the IC50 on ASK1/MAP3K5 was 50 to 1000 nM.
As for `CC(C)n1cnnc1-c1cccc(-n2cnc3cc(-c4ccc(N)nc4)c(-n4cnc(C5CC5)c4)cc3c2=O)n1` [Example 034], at ASK1/MAP3K5, the IC50 was at most 50 nM.
The same measure, in the same setting: the result for `CC(C)n1cnnc1-c1cccc(-n2cnc3cc(OCCCF)c(-n4cnc(C5CC5)c4)cc3c2=O)n1` [Example 054] reads at most 50 nM.
Regarding `Cc1cc2c(cc1-n1cnc(C3CC3)c1)C(=O)N(c1cccc(-c3nnc4n3CCC4)n1)CC2` [Example 008], on ASK1/MAP3K5, the IC50 is at most 50 nM. In series [1], the Exposure came to 103.95 µM·h and the bioavailability was 98.5%.
For the compound `CCc1cc2ncn(-c3cccc(-c4nncn4C(C)C)n3)c(=O)c2cc1-n1cnc(C2CC2)c1` [Example 022], the IC50 on ASK1/MAP3K5 was at most 50 nM.
On to `Cc1cc2ncn(-c3cccc(-c4nncn4C(C)CO)n3)c(=O)c2cc1-n1cnc(C2CC2)c1` (centres unmarked) [Example 057], for which the IC50 on ASK1/MAP3K5 is at most 50 nM.
On the same count and under the same terms, the value for `CC(C)n1cnnc1-c1cccc(-n2cnc3cc(Cl)c(-n4cnc(C5CC5)c4)cc3c2=O)n1` [Example 021] was at most 50 nM; that for `Cc1cc2ncn(-c3cccc(-c4nncn4C(C)(C)C)n3)c(=O)c2cc1-n1cnc(C2CC2)c1` [Example 047] was at most 50 nM; that for `COCCOc1cc2ncn(-c3cccc(-c4nncn4C(C)C)n3)c(=O)c2cc1-n1cnc(C2CC2)c1` [Example 035] was at most 50 nM.
On the same count and under the same terms, the value for `CC(C)n1cnnc1-c1cccc(-n2cnc3cc(OCCO)c(-n4cnc(C5CC5)c4)cc3c2=O)n1` [Example 041] was at most 50 nM; that for `CC(C)n1cnnc1-c1cccc(-n2cnc3cc(-c4ccccc4)c(-n4cnc(C5CC5)c4)cc3c2=O)n1` [Example 023] was at most 50 nM.
For `CC(C)n1cnnc1-c1cccc(-n2cc(F)c3ccc(-n4cnc(C5CC5)c4)cc3c2=O)n1` [Example 003], the IC50 on ASK1/MAP3K5 was at most 50 nM. Also, in series [1], the Exposure is 66.259 µM·h and the bioavailability was 214%.
Take `CC(C)n1cnnc1-c1cccc(-n2cnc3cc(-c4ccsc4)c(-n4cnc(C5CC5)c4)cc3c2=O)n1` [Example 025]: the IC50 at ASK1/MAP3K5 was at most 50 nM.
On to `CC(C)n1cnnc1-c1cccc(N2CCc3ccc(-n4cnc(C5CC5)c4)cc3C2=O)n1` [Example 001], for which the IC50 on ASK1/MAP3K5 was at most 50 nM. Moreover, in series [1], the Exposure was 69.652 µM·h and the bioavailability turned out to be 133%.
Consider `Cc1cc2ncn(-c3cccc(-c4nncn4C(C)C)n3)c(=O)c2cc1-c1ccc(C(C)C)nc1` [Example 052], for which the IC50 on ASK1/MAP3K5 is at most 50 nM.
In the case of `Cc1cc2c(F)cn(-c3cccc(-c4nnc5n4CCCC5)n3)c(=O)c2cc1-n1cnc(C2CC2)c1` [Example 017], the IC50 on ASK1/MAP3K5 fell in the range of 50 to 1000 nM.
With `CNC(=O)COc1cc2ncn(-c3cccc(-c4nncn4C(C)C)n3)c(=O)c2cc1-n1cnc(C2CC2)c1` [Example 039], the IC50 at ASK1/MAP3K5 was at most 50 nM.
On to `CC(C)n1cnnc1-c1cccc(-n2cnc3cc(-c4cccnc4)c(-n4cnc(C5CC5)c4)cc3c2=O)n1` [Example 024], for which the IC50 at ASK1/MAP3K5 is at most 50 nM.
For the compound `Cc1nnc(-c2cccc(-n3cnc4cc(C)c(-n5cnc(C6CC6)c5)cc4c3=O)n2)o1` [Example 020], the IC50 at ASK1/MAP3K5 was over 1000 nM.
Turning to `CC(C)n1cnnc1-c1cccc(-n2cnc3cc(OCC4COC4)c(-n4cnc(C5CC5)c4)cc3c2=O)n1` [Example 058], the 50% inhibitory concentration (IC50) at ASK1/MAP3K5 is at most 50 nM.
As for `Cc1cc2ncn(-c3cccc(-c4nncn4C4CCCCC4)n3)c(=O)c2cc1-n1cnc(C2CC2)c1` [Example 051], on ASK1/MAP3K5, the IC50 was at most 50 nM.
`Cc1cc2c(cc1-n1cnc(C3CC3)c1)C(=O)N(c1cccc(-c3nncn3C(C)C)n1)CC2` [Example 002]: the concentration for half-maximal inhibition (IC50) at ASK1/MAP3K5 is at most 50 nM. Also, in series [1], the Exposure was determined as 29.277 µM·h and the bioavailability came to 92%.
Take `CC(C)n1cnnc1-c1cccc(N2Cc3ccc(-n4cnc(C5CC5)c4)cc3C2=O)n1` [Example 005]: the IC50 on ASK1/MAP3K5 was at most 50 nM.
Consider `Cc1nc(C2CC2)cn1-c1ccc2c(c1)C(=O)N(c1cccc(-c3nnc4n3CCCC4)n1)CC2` [Example 012], for which, at ASK1/MAP3K5, the half-maximal inhibitory concentration (IC50) is over 1000 nM.
Turning to `CC(C)n1cnnc1-c1cccc(-n2ccc3ccc(-n4cnc(C5CC5)c4)cc3c2=O)n1` [Example 004], on ASK1/MAP3K5, the IC50 was at most 50 nM.
Take `Cc1cc2ncn(-c3cccc(-c4nncn4CC(F)(F)F)n3)c(=O)c2cc1-n1cnc(C2CC2)c1` [Example 019]: at ASK1/MAP3K5, the IC50 was at most 50 nM.
Regarding `CC(C)n1cnnc1-c1cccc(-n2cnc3cc(O)c(-n4cnc(C5CC5)c4)cc3c2=O)n1` [Example 037], at ASK1/MAP3K5, the IC50 is at most 50 nM.
As for `Cc1cc2ncn(-c3cccc(-c4nncn4C4CCCC4)n3)c(=O)c2cc1-n1cnc(C2CC2)c1` [Example 044], the IC50 at ASK1/MAP3K5 is at most 50 nM.
Turning to `CC(C)n1cnnc1-c1cccc(-n2cnc3cc(OCCCS(C)(=O)=O)c(-n4cnc(C5CC5)c4)cc3c2=O)n1` [Example 040], at ASK1/MAP3K5, the IC50 is at most 50 nM.
With `Cc1cc2ncn(-c3cccc(-c4nnc5n4CCCC5)n3)c(=O)c2cc1-n1cnc(C2CC2)c1` [Example 014], the IC50 on ASK1/MAP3K5 was in the range of 50 to 1000 nM.
Turning to `CC(C)n1cnnc1-c1cccc(-n2cnc3cc(N(C)C)c(-n4cnc(C5CC5)c4)cc3c2=O)n1` [Example 055], the IC50 at ASK1/MAP3K5 was at most 50 nM.
For `CC(C)n1cnnc1-c1cccc(-n2cnc3cc(N4CCOCC4)c(-n4cnc(C5CC5)c4)cc3c2=O)n1` [Example 056], the IC50 at ASK1/MAP3K5 was at most 50 nM.
On to `Cc1cc2ncn(-c3cccc(-c4nncn4C4CC4)n3)c(=O)c2cc1-n1cnc(C2CC2)c1` [Example 018], for which the concentration for half-maximal inhibition (IC50) on ASK1/MAP3K5 was at most 50 nM. In series [1], the Exposure is 59.568 µM·h and the bioavailability was determined as 111%.
Take `Cc1cc2ccn(-c3cccc(-c4nncn4C(C)C)n3)c(=O)c2cc1-n1cnc(C2CC2)c1` [Example 006]: the IC50 on ASK1/MAP3K5 was at most 50 nM.
Same read-out and setting: the result for `Cc1cc2ncn(-c3cccc(-c4nnc5n4CCC5)n3)c(=O)c2cc1-n1cnc(C2CC2)c1` [Example 028] reads 50 to 1000 nM; that for `COc1nc2cc(C)c(-n3cnc(C4CC4)c3)cc2c(=O)n1-c1cccc(-c2nncn2C(C)C)n1` [Example 029], over 1000 nM.
For the compound `Cc1cc2c(cc1-n1cnc(C3CC3)c1)C(=O)N(c1cccc(-c3nnc4n3CCCC4)n1)CC2` [Example 009], on ASK1/MAP3K5, the IC50 is at most 50 nM. Further, in series [1], the Exposure came out at 89.099 µM·h and the bioavailability amounted to 115%.
Turning to `CCC(CC)n1cnnc1-c1cccc(-n2cnc3cc(C)c(-n4cnc(C5CC5)c4)cc3c2=O)n1` [Example 045], on ASK1/MAP3K5, the IC50 was at most 50 nM.
Regarding `Cc1cc2ncn(-c3cccc(-c4nnc(C)n4C)n3)c(=O)c2cc1-n1cnc(C2CC2)c1` [Example 015], the IC50 on ASK1/MAP3K5 is over 1000 nM.
Take `Cc1cc2ncn(-c3cccc(-c4nncn4C(C)C)n3)c(=O)c2cc1-n1cnc(-c2ccccc2)c1` [Example 050]: the concentration for half-maximal inhibition (IC50) on ASK1/MAP3K5 was at most 50 nM.
Take `Cc1cc2ncn(-c3csc(-c4nncn4C(C)C)c3)c(=O)c2cc1-n1cnc(C2CC2)c1` [Example 042]: at ASK1/MAP3K5, the IC50 was over 1000 nM.
On to `Cc1cc2ncn(-c3csc(-c4nncn4C(C)C)n3)c(=O)c2cc1-n1cnc(C2CC2)c1` [Example 046], for which the IC50 on ASK1/MAP3K5 was at most 50 nM.
On to `Cc1cc2ncn(-c3cccc(-c4nnc(C)n4C(C)C)n3)c(=O)c2cc1-n1cnc(C2CC2)c1` [Example 016], for which the IC50 at ASK1/MAP3K5 fell in the range of 50 to 1000 nM.
`COc1cc2ncn(-c3cccc(-c4nncn4C(C)C)n3)c(=O)c2cc1-n1cnc(C2CC2)c1` [Example 031]: the IC50 at ASK1/MAP3K5 is at most 50 nM.
For `Cc1cc2ncn(-c3cccc(-c4nncn4C4CCOCC4)n3)c(=O)c2cc1-n1cnc(C2CC2)c1` [Example 048], the concentration for half-maximal inhibition (IC50) at ASK1/MAP3K5 fell in the range of 50 to 1000 nM.
Regarding `Cc1cc2ncn(-c3cccc(-c4nncn4C(C)C)c3)c(=O)c2cc1-n1cnc(C2CC2)c1` [Example 043], the 50% inhibitory concentration (IC50) at ASK1/MAP3K5 is over 1000 nM.
The same measure, in the same setting: the value for `CC(C)n1cnnc1-c1cccc(-n2cnc3ccc(-n4cnc(C5CC5)c4)cc3c2=O)n1` [Example 013] was at most 50 nM.
For `O=C1c2cc(-n3cnc4c3CCCC4)ccc2CCN1c1cccc(-c2nnc3n2CCCC3)n1` [Example 010], the IC50 at ASK1/MAP3K5 was 50 to 1000 nM.
For the compound `CC(C)n1cnnc1-c1cccc(-n2cnc3cc(OCC(N)=O)c(-n4cnc(C5CC5)c4)cc3c2=O)n1` [Example 038], the IC50 at ASK1/MAP3K5 is at most 50 nM.
